Where two headings read alike, the source gives them in different places.
Tests used:
[1] = tested on: mechanical hyperalgesia associated with STZ-induced diabetes; assay: STZ-induced diabetes mechanical hyperalgesia (neuropathic pain); format: in vivo, rat; conditions: for ED50: Rattus norvegicus, ip, read-out: ED50 0.5 hrs; for ED100 0.5 hrs: i.p.
Protocol: Painful diabetic neuropathy is one of the most common complications of insulin-dependent diabetes in man; in particular, diabetes can be associated with neuropathic pain which fails to be treated by classical analgesics. Streptozotocin (STZ)-induced diabetes in the rat has been increasingly used as a model of painful diabetic neuropathy to assess the efficacies of potential analgesic agents (C. Courteix, Pain 1993, 53, 81-8). The compounds of the invention were tested for efficacy in reducing mechanical hyperalgesia associated with STZ-induced diabetes in the rat, according to the experimental model as described by the literature. Diabetes was produced with the injection of a single dose (75 mg/Kg i.p.) of STZ. In the following four weeks after the induction of diabetes the clinical symptoms (weight, body and skin temperature, motility and hyperglycemia) progressively developed by the animals, are strictly monitored. After four weeks, the scores obtained in diabetic rats to various pain stimuli (in particular mechanical stimuli) were greater than those in normal rats, indicating hyperalgesia. The hyperalgesia induced by diabetes was evaluated using the Randall-Selitto method as above described, and quantitated using the analgesimeter. Also in this case, the difference in the mechanical pain threshold between the basal value (generally 230-250 g) and the one tolerated by the animals treated with the drug, is defined as mechanical hyperalgesia. The compounds of the invention were administered i.p. (solution, Tween 80, 10% in saline) at different doses, and mechanical hyperalgesia was measured at the reported time, as maximum percent effect (MPE) which represents the difference (%) in pain threshold between the animals treated with the drug and the controls that received only the vehicle, compared with the weight borne by naïf non-diabetic controls. A 100% protection means that the diabetic animals treated with the compound can tolerate the same stimulus (weight) as the naïf non-diabetic animals. MPE higher than 100% means that the diabetic animal treated with the compound can tolerate stimuli (weight) higher than the control non-diabetic animals (hypoalgesia).
In particular, from the MPE data at 0.5 hrs, the doses yielding a protection of 50% (ED50) and 100% (ED100) have been calculated.

[2] = tested on: Zymosan-induced mechanical hyperalgesia; assay: Zymosan-induced mechanical hyperalgesia (Randall-Selitto), inflammatory pain; format: in vivo, rat; conditions: for ED50: Rattus norvegicus, read-out: Analgesia ED50
Protocol: (§1) The interplantar injection of Zymosan-induced mechanical hyperalgesia was used as a model of inflammatory pain (Meller, Neuropharmacology, 1994, 33, 1471-1478). In this model, typically a male Sprague-Dawley or Wistar rat (200-250 g) receives an interplantar injection of 3 mg/100 μl zymosan into one hind paw. A marked inflammation occurs in this hind paw. Drugs are administered orally for evaluation of efficacy, 30 min. before the inflammatory insult. The hyperalgesia induced by zymosan administration was evaluated using the Randall-Selitto method (Arch. Int. Pharmacodyn., 1957, 111, 409). The quantitation of the analgesic effect is achieved by an analgesimeter, which consist in applying to the inflamed paw an increasing weight (from 130-140 g up to 500 g). The difference in the mechanical pain threshold between the basal value (generally 230-250 g) and the one tolerated by the animals treated with the drug, determined 4 hours after the inflammatory challenge, is defined as mechanical hyperalgesia. Mechanical hyperalgesia is expressed for the compounds of the invention as ED50, which is the dose of the administered compound able to increase the pain threshold by 50% in comparison with the group of control animals. The corresponding ED100, representing the dose able of reducing of 100% the pain threshold, can be calculated for those cases where there is a linear dose-response relationship. In vivo anti-inflammatory effect exerted by the compound of the invention can be assessed in the same Zymosan induced inflammation test described above, by measuring the volume of the oedema induced by the inflammatory agent. The oedema was evaluated as the increase in the volume of the Zymosan injected paw within a time of 0-2 hrs. The measurements of the variation of the oedema volume of the paw were recorded using hydroplethysmometer, which consists of two plastic cuvettes containing a surfactant liquid, the larger one being used for immersion of the paw, connected to the smaller one which contains a transducer capable of recording small displacements of the volume used for the measure. The paw is immersed in the cuvettes up to the tibiotarsal joint. The volume of the liquid displaced is proportional to the extent of the inflammation. The efficacy of the compounds of the invention in preventing oedema formation is expressed as ED30, is measured 2 hours after the inflammatory challenge, and represents the dose able of reducing of 30%, the Zymosan induced paw volume increase in comparison to control animals (animals treated with Zymosan but treated with only distilled water instead of the testing compound). The corresponding ED50, representing the dose able of reducing of 50% the Zymosan induced paw volume increase, can be calculated for those cases where there is a linear dose-response relationship. In both the experiments, for each test compound, at least three doses were used, with 10 animals per group. Compounds of the invention were tested at 10, 20 and 40 mg/Kg.

[3] = tested on: Zymosan induced paw volume increase; assay: Zymosan-induced paw oedema; format: in vivo, rat; conditions: oral, 2 hours after challenge
Protocol: as §1

COX-2 = COX-2 production in IL-1 stimulated human chondrosarcoma cell line; format: cell-based; conditions: for inhibition at 0.3 µM / inhibition at 1 µM / inhibition at 10 µM: Homo sapiens
Excerpt: (§2) The compounds of the invention have been found effective in interfering with COX-2 and cytokines production, in several cell lines; examples of these effects are reported in Table 3, for COX-2 and IL-1β and IL-6 cytokines, in IL-1 stimulated human chondrosarcoma cell line.

IL-1β = IL-1β production in IL-1 stimulated human chondrosarcoma cell line; format: cell-based
Excerpt: as §2

IL-6 = IL-6 production in IL-1 stimulated human chondrosarcoma cell line; format: cell-based
Excerpt: as §2

[4] = tested on: CFA-induced prolonged inflammation; assay: CFA model of chronic inflammatory pain; format: in vivo, rat; conditions: for ED50: Rattus norvegicus, ip; for ED50 / ED100 0.5 hrs: calculated from MPE data at 0.5 hrs; for ED100 0.5 hrs: i.p.
[5] = even at the higher doses tested
Excerpt: The performance of representative compounds of Formula (I), in the tests described above, is summarized for both the analgesic effect and the anti-inflammatory effect in Table 4, where the activity of the compounds of the invention is compared with the performance in the same test of well known standards.

[6] = oral, 30 min before zymosan, 4 hours after challenge
[7] = calculated from MPE data at 0.5 hrs

CN(C)CCC=C1c2ccccc2CCc2ccccc21 [Amitriptyline, reference compound]
MPE 0.5 hrs. ([1]; 3 mg/kg i.p.): 44%
MPE 1.5 hrs. ([1]; 3 mg/kg i.p.): 40%
MPE 3 hrs. ([1]; 3 mg/kg i.p.): 5%
MPE 0.5 hrs. ([1]; 10 mg/kg i.p.): 68%
MPE 1.5 hrs. ([1]; 10 mg/kg i.p.): 77%
MPE 0.5 hrs. ([1]; 30 mg/kg i.p.): 65%
MPE 1.5 hrs. ([1]; 30 mg/kg i.p.): 69%
MPE 3 hrs. ([1]; 30 mg/kg i.p.): 23%

Cc1ccc(-c2cc(C(F)(F)F)nn2-c2ccc(S(N)(=O)=O)cc2)cc1 [Celecoxib]
ED50 [2, 6]: 9 mg/kg
Analgesia ED100 [2, 6]: 1172 mg/kg
Oedema Reduction ED30 [3]: 13.8 mg/kg

c1ccc(-c2ncc3cc(-n4ccnc4)ccc3n2)cc1 [Example 1, [2-phenyl-6-(1H-imidazol-1-yl)]quinazoline]
inhibition at 0.3 µM (COX-2): 20%
inhibition at 0.3 µM (IL-1β): 10%
inhibition at 0.3 µM (IL-6): 35%
ED50 [2, 6]: 6.5 mg/kg
Analgesia ED100 [2, 6]: 10 mg/kg
MPE 0.5 hrs. ([4]; 3 mg/kg i.p.): 52%
MPE 1.5 hrs. ([4]; 3 mg/kg i.p.): 4%
MPE 0.5 hrs. ([4]; 10 mg/kg i.p.): 67%
MPE 1.5 hrs. ([4]; 10 mg/kg i.p.): 63%
MPE 3 hrs. ([4]; 10 mg/kg i.p.): 29%
MPE 6 hrs. ([4]; 10 mg/kg i.p.): 22%
MPE 24 hrs. ([4]; 10 mg/kg i.p.): 5%
MPE 0.5 hrs. ([4]; 30 mg/kg i.p.): 367%
MPE 1.5 hrs. ([4]; 30 mg/kg i.p.): 368%
MPE 3 hrs. ([4]; 30 mg/kg i.p.): 321%
MPE 6 hrs. ([4]; 30 mg/kg i.p.): 239%
MPE 24 hrs. ([4]; 30 mg/kg i.p.): 60%
ED50 [4]: 5.5 mg/kg
ED100 0.5 hrs [4]: 9.6 mg/kg
MPE 0.5 hrs. ([1]; 3 mg/kg i.p.): 24%
MPE 0.5 hrs. ([1]; 10 mg/kg i.p.): 41%
MPE 1.5 hrs. ([1]; 10 mg/kg i.p.): 68%
MPE 0.5 hrs. ([1]; 30 mg/kg i.p.): 236%
MPE 1.5 hrs. ([1]; 30 mg/kg i.p.): 225%
MPE 3 hrs. ([1]; 30 mg/kg i.p.): 171%
MPE 6 hrs. ([1]; 30 mg/kg i.p.): 34%
ED50 [1, 7]: 5.5 mg/kg
ED100 0.5 hrs [1, 7]: 9.6 mg/kg
ED50 ([3]; Rattus norvegicus, read-out: Oedema Reduction ED50): 97 mg/kg
Oedema Reduction ED30 [3]: 7.3 mg/kg

c1cn(-c2ccc3nc(-c4ccc5c(c4)OCO5)ncc3c2)cn1 [Example 3, [2-(1,3-benzodioxol-5-yl)-6-(1H-imidazol-1-yl)]quinazoline]
inhibition at 0.3 µM (COX-2): 35%
inhibition at 1 µM (COX-2): 64%
inhibition at 10 µM (COX-2): 75%
IC50 (COX-2; IL-1 stimulated human chondrosarcoma cell line, read-out: IC50 (inhibition of COX-2 production)): 0.63 µM
inhibition at 0.3 µM (IL-1β): 20%
inhibition at 1 µM (IL-1β): 15%
inhibition at 10 µM (IL-1β): 40%
inhibition at 0.3 µM (IL-6): 20%
inhibition at 1 µM (IL-6; 1 μM): 35%
ED50 [2, 6]: 2.8 mg/kg
Analgesia ED100 [2, 6]: 5 mg/kg
MPE 0.5 hrs. ([4]; 3 mg/kg i.p.): 54%
MPE 1.5 hrs. ([4]; 3 mg/kg i.p.): 90%
MPE 3 hrs. ([4]; 3 mg/kg i.p.): 32%
MPE 6 hrs. ([4]; 3 mg/kg i.p.): 5%
MPE 0.5 hrs. ([4]; 10 mg/kg i.p.): 216%
MPE 1.5 hrs. ([4]; 10 mg/kg i.p.): 188%
MPE 3 hrs. ([4]; 10 mg/kg i.p.): 85%
MPE 6 hrs. ([4]; 10 mg/kg i.p.): 23%
MPE 24 hrs. ([4]; 10 mg/kg i.p.): 3%
MPE 0.5 hrs. ([4]; 30 mg/kg i.p.): 344%
MPE 1.5 hrs. ([4]; 30 mg/kg i.p.): 198%
MPE 3 hrs. ([4]; 30 mg/kg i.p.): 101%
MPE 6 hrs. ([4]; 30 mg/kg i.p.): 49%
MPE 24 hrs. ([4]; 30 mg/kg i.p.): 41%
ED50 [4]: 2.7 mg/kg
ED100 0.5 hrs [4]: 4.7 mg/kg
MPE 0.5 hrs. ([1]; 3 mg/kg i.p.): 73%
MPE 1.5 hrs. ([1]; 3 mg/kg i.p.): 88%
MPE 3 hrs. ([1]; 3 mg/kg i.p.): 50%
MPE 6 hrs. ([1]; 3 mg/kg i.p.): 24%
MPE 0.5 hrs. ([1]; 10 mg/kg i.p.): 141%
MPE 1.5 hrs. ([1]; 10 mg/kg i.p.): 143%
MPE 3 hrs. ([1]; 10 mg/kg i.p.): 98%
MPE 6 hrs. ([1]; 10 mg/kg i.p.): 49%
MPE 0.5 hrs. ([1]; 30 mg/kg i.p.): 283%
MPE 1.5 hrs. ([1]; 30 mg/kg i.p.): 273%
MPE 3 hrs. ([1]; 30 mg/kg i.p.): 263%
MPE 6 hrs. ([1]; 30 mg/kg i.p.): 264%
ED50 [1, 7]: 2.9 mg/kg
ED100 0.5 hrs [1, 7]: 5.3 mg/kg
Oedema Reduction ED30 [3]: 172 mg/kg

c1cn(-c2ccc3nc(-c4ccc5c(c4)OCCO5)ncc3c2)cn1 [Example 5]
inhibition at 0.3 µM (COX-2): 50%
inhibition at 1 µM (COX-2): 60%
inhibition at 10 µM (COX-2): 70%
inhibition at 0.3 µM (IL-1β): 20%
inhibition at 1 µM (IL-1β): 30%
inhibition at 10 µM (IL-1β): 40%
inhibition at 10 µM (IL-6; 10 μM): 35%

CS(=O)(=O)Nc1ccc([N+](=O)[O-])cc1Oc1ccccc1 [Nimesulide]
ED50 [2, 6]: 7.4 mg/kg
Analgesia ED100 [2, 6]: 161 mg/kg
ulcerative side effects [5]: ulcerative side effects
Oedema Reduction ED30 [3]: 0.5 mg/kg

CN1C(C(=O)Nc2ccccn2)=C(O)c2ccccc2S1(=O)=O [Piroxicam, reference compound]
MPE 0.5 hrs. ([4]; 30 mg/kg i.p.): 102%
MPE 1.5 hrs. ([4]; 30 mg/kg i.p.): 111%
MPE 3 hrs. ([4]; 30 mg/kg i.p.): 54%
MPE 6 hrs. ([4]; 30 mg/kg i.p.): 24%
MPE 24 hrs. ([4]; 30 mg/kg i.p.): 38%

COc1cccc(C2(O)CCCCC2CN(C)C)c1 (stereo not shown) [Tramadol, reference compound]
ED50 [2]: 25.7 mg/kg
Analgesia ED100 [2, 6]: 405 mg/kg
MPE 0.5 hrs. ([1]; 3 mg/kg i.p.): 26%
MPE 1.5 hrs. ([1]; 3 mg/kg i.p.): 53%
MPE 3 hrs. ([1]; 3 mg/kg i.p.): 7%
MPE 0.5 hrs. ([1]; 10 mg/kg i.p.): 58%
MPE 1.5 hrs. ([1]; 10 mg/kg i.p.): 48%
MPE 3 hrs. ([1]; 10 mg/kg i.p.): 27%
MPE 0.5 hrs. ([1]; 30 mg/kg i.p.): 54%
MPE 1.5 hrs. ([1]; 30 mg/kg i.p.): 64%
MPE 3 hrs. ([1]; 30 mg/kg i.p.): 23%
MPE 0.5 hrs. ([1]; 50 mg/kg i.p.): 81%
MPE 1.5 hrs. ([1]; 50 mg/kg i.p.): 60%
MPE 3 hrs. ([1]; 50 mg/kg i.p.): 43%
ED50 ([1]; 0.5 h): 10.9 mg/kg
ED100 0.5 hrs ([1]; extrapolated from a dose-response curve approaching the 100% protection): 251 mg/kg

Reference: patent US8193353B2, “6-1H-imidazo-quinazoline and quinolines derivatives, new potent analgesics and anti-inflammatory agents” (Rottapharm S.p.A, priority 2006, dated 2012)
